Data: US20250214977A1, “STAT6 INHIBITORS AND USES THEREOF” (Kymera Therapeutics, Inc., priority 2024, published 2025)

system: Phosphorylation of STAT6 in human A549 cells; assay: Phosphorylated STAT6 (pSTAT6) flow cytometry assay in human A549 cells; type: cell-based; settings: read-out: STAT6 IL4 pSTAT6 assay in A549 cells: Average IC50
Text: Example 3. Phosphorylated STAT6 (pSTAT6) Flow Cytometry Assay in Human A549 Cells
Phosphorylation of STAT6 in human A549 cells was quantitatively measured using flow cytometry technology.

Row | Molecule | IC50
1 | CCc1cnccc1-c1cc(C2=CCCN(C(=O)CCn3ccnn3)C2)c(F)c2[nH]c(C(=O)N3CCN(c4ncc(OC)cc4OC)CC3)cc12 [Example I-484] | > 100000 nM
2 | COc1ccccc1-c1cc(C2=CCCN(C(=O)CCn3ccnn3)C2)c(F)c2[nH]c(C(=O)N3CCN(c4ncccc4C4CC4)CC3)cc12 [Example I-495] | > 100000 nM
3 | COc1ccccc1-c1cc(C2=CCCN(C(=O)CCn3ccnn3)C2)c(F)c2[nH]c(C(=O)N3CCC(C)(O)C3)cc12 (stereo not shown) [Example I-1006] | 100 to 1000 nM
4 | COc1cccc(N2CCN(C(=O)c3cc4c(-c5cc(F)cc(F)c5OC)cc(C5=CCCN(C(=O)CCn6ccnn6)C5)c(F)c4[nH]3)CC2)n1 [Example I-591] | < 100 nM
5 | COc1cc(F)cnc1N1CCN(C(=O)c2cc3c(-c4cccc(OC(C)C)c4)cc(C4=CCCN(C(=O)CCn5ccnn5)C4)c(F)c3[nH]2)CC1 [Example I-638] | < 100 nM
6 | COc1ccccc1-c1cc(C2=CCCN(C(=O)CCn3ccnn3)C2)c(F)c2[nH]c(C(=O)N3CCO[C@H](C)C3)cc12 [Example I-1007] | < 100 nM
7 | COc1ccccc1-c1cc(C2=CCCN(C(=O)CCn3ccnn3)C2)c(F)c2[nH]c(C(=O)N3CCN(CC(=O)NC(C)C)CC3)cc12 [Example I-1200] | < 100 nM
8 | COc1ccncc1-c1cc(C2=CCCN(C(=O)CCn3ccnn3)C2)c(F)c2[nH]c(C(=O)N(C)C)cc12 [Example I-1065] | < 100 nM
9 | COc1ccncc1-c1cc(C2=CCCN(C(C)=O)C2)c(F)c2sc(C(=O)N(C)C)cc12 [Example I-555] | 100 to 1000 nM
10 | COc1ccccc1-c1cc(C2=CCCN(C(=O)CCn3ccnn3)C2)c(F)c2[nH]c(C(=O)N3CCN(c4ncc(C5CC5)cc4OC)CC3)cc12 [Example I-354] | < 100 nM
11 | COc1cc(F)cnc1N1CCN(C(=O)c2cc3c(-c4cccc(C5(C#N)CC5)c4)cc(C4=CCCN(C(=O)CCn5ccnn5)C4)c(F)c3[nH]2)CC1 [Example I-649] | < 100 nM
12 | CCc1nc(C)ccc1-c1cc(C(=O)N2CCN(c3nc(C)c(F)cc3OC)CC2)cc2cc(C3=CCCN(C(=O)CCn4ccnn4)C3)n(CC3CC3)c12 [Example I-546] | > 100000 nM
13 | COc1ccc(C)cc1-c1cc(C2=CCCN(C(=O)C3Cc4ccccc4CN3C=O)C2)cc2cc(C(=O)N(C)C)oc12 (stereo not shown) [Example I-1197] | 100 to 1000 nM
14 | COc1cc(F)cnc1N1CCN(C(=O)c2cc3c(C4=CCN(Cc5ccccc5)CC4)cc(C4=CCCN(C(=O)CCn5ccnn5)C4)c(F)c3[nH]2)CC1 [Example I-1132] | < 100 nM
15 | COc1ccccc1-c1cc(C2=CCCN(C(=O)CCn3ccnn3)C2)c(F)c2sc(C(=O)N3CCN(c4ncccc4OC)CC3)cc12 [Example I-346] | < 100 nM
16 | COc1ccccc1-c1cc(C2=CCCN(C(=O)CCn3ccnn3)C2)c(F)c2[nH]c(C(=O)N3CCN(c4cc(C#N)ccc4OC)CC3)cc12 [Example I-356, 3-(4-(6-(1-(3-(1H-1,2,3-triazol-1-yl)propanoyl)-1,2,5,6-tetrahydropyridin-3-yl)-7-fluoro-4-(2-methoxyphenyl)-1H-indole-2-carbonyl)piperazin-1-yl)-4-methoxybenzonitrile] | < 100 nM
17 | COc1ccccc1-c1cc(C2=CCCN(C(=O)CCn3ccnn3)C2)c(F)c2[nH]c(C(=O)N3CC4CCN(Cc5ccccc5)C4C3)cc12 (stereo not shown) [Example I-987] | 1000 to 10000 nM
18 | COc1ccccc1-c1cc(C2=CCCN(C(=O)CCn3ccnn3)C2)c(F)c2[nH]c(C(=O)N3CCN(c4cc(F)c5nc(C)n(C(C)C)c5c4)CC3)cc12 [Example I-340] | < 100 nM
19 | COc1cc(F)cnc1N1CCN(C(=O)c2cc3c(-c4ccc5nn(C)cc5c4)cc(C4=CCCN(C(=O)CCn5ccnn5)C4)c(F)c3[nH]2)CC1 [Example I-624] | < 100 nM
20 | COc1cnccc1-c1cc(C2=CCCN(C(=O)CCn3ccnn3)C2)c(F)c2[nH]c(C(=O)N3CCN(c4ncc(C(F)(F)F)cc4OC)CC3)cc12 [Example I-435] | < 100 nM

Row | Molecule | IC50
21 | COc1ccccc1-c1cc(C2=CCCN(C(=O)C(C)C)C2)c(F)c2[nH]c(C(=O)N(C)C)cc12 [Example I-837] | 100 to 1000 nM
22 | COc1ccncc1-c1cc(C(=O)N2CCN(c3ncc(F)cc3OC)CC2)cc2cc(C3CCCN(C(=O)CCn4ccnn4)C3)[nH]c12 (stereo not shown) [Example I-1203] | 1000 to 10000 nM
23 | COc1ccccc1-c1cc(C2=CCCN(C(=O)C(C)C)C2)c(F)c2cc(C(=O)N(C)C)oc12 [Example I-1190] | 100 to 1000 nM
24 | COc1cc(F)cnc1N1CCN(C(=O)c2cc3c(C4CCCCN4C)cc(C4=CCCN(C(=O)CCn5ccnn5)C4)c(F)c3[nH]2)CC1 (stereo not shown) [Example I-780] | < 100 nM
25 | CCn1ncc2c1CN(C(=O)c1cc(C3CC3)c3c(c1)cc(C1=CCCN(C(=O)CCn4ccnn4)C1)n3CC1CC1)C2 [Example I-768] | > 100000 nM
26 | COc1cc(F)cnc1N1CCN(C(=O)c2cc3c(-c4ccccc4C4CC4)cc(C4=CCCN(C(=O)CCn5ccnn5)C4)c(F)c3[nH]2)CC1 [Example I-645] | < 100 nM
27 | COc1cccc(F)c1-c1cc(C2=CCCN(C(C)=O)C2)c(F)c2cc(C(=O)N(C)C)oc12 [Example I-1105] | 100 to 1000 nM
28 | COc1cnccc1-c1cc(C2=CCCN(C(=O)CCn3cccn3)C2)c(F)c2[nH]c(C(=O)N3CCN(c4ncc(F)cc4OC)CC3)cc12 [Example I-663] | < 100 nM
29 | COCOc1ccc(-c2cc(C3=CCCN(C(=O)CCn4ccnn4)C3)c(F)c3[nH]c(C(=O)N4CCN(c5ncc(F)cc5OC)CC4)cc23)cc1 [Example I-1147] | < 100 nM
30 | COc1ccccc1-c1cc(C2=CCCN(C(=O)CCn3ccnn3)C2)c(F)c2[nH]c(C(=O)N3CCN(c4c(F)cccc4OC4CC4)CC3)cc12 [Example I-424] | < 100 nM
31 | CCSc1ccccc1-c1cc(C2=CCCN(C(=O)CCn3ccnn3)C2)c(F)c2[nH]c(C(=O)N3CCN(c4ncc(F)cc4OC)CC3)cc12 [Example I-679] | < 100 nM
32 | 5-(1-(2-formyl-1,2,3,4-tetrahydroisoquinoline-3-carbonyl)-1,2,5,6-tetrahydropyridin-3-yl)-7-(2-methoxyphenyl)-N,N-dimethylbenzofuran-2-carboxamide [Example I-803] | > 100000 nM
33 | CCc1nc(C)ncc1-c1cc(C2=CCCN(C(=O)CCn3ccnn3)C2)c(F)c2[nH]c(C(=O)N3Cc4cnn(CC)c4C3)cc12 [Example I-764] | < 100 nM
34 | COc1cc(F)cnc1N1CCN(C(=O)c2cc3c(-c4ccc(OCC5CC5)nc4)cc(C4=CCCN(C(=O)CCn5ccnn5)C4)c(F)c3[nH]2)CC1 [Example I-1164] | 100 to 1000 nM
35 | COc1ccccc1-c1cc(C2=CCCN(C(=O)CCn3ccnn3)C2)c(F)c2[nH]c(C(=O)N3CCN(c4ccc(F)cc4OC)CC3)cc12 [Example I-431] | < 100 nM
36 | COc1ccccc1-c1cc(C2=CCCN(C(=O)CCn3ccnn3)C2)c(F)c2[nH]c(C(=O)N3CCC(N(C)C4CC4)C3)cc12 (stereo not shown) [Example I-898] | < 100 nM
37 | COc1ccccc1-c1cc(C2=CCCN(C(=O)CCn3ccnn3)C2)c(F)c2[nH]c(C(=O)N3CCc4c(cnn4C)C3)cc12 [Example I-518] | < 100 nM
38 | COc1cccnc1N1CCN(C(=O)c2cc3c(-c4ccc(C#N)cn4)cc(C4=CCCN(C(=O)CCn5ccnn5)C4)c(F)c3[nH]2)CC1 [Example I-575] | < 100 nM
39 | COc1ccncc1-c1cc(C2=CCCN(C(=O)CCn3ccnn3)C2)c(F)c2[nH]c(C(=O)N3CCN(c4cccc(F)c4OC)CC3)cc12 [Example I-563] | < 100 nM
40 | COc1ccccc1-c1cc(C2=CCCN(C(=O)CCn3ccnn3)C2)c(F)c2[nH]c(C(=O)N3CCN(Cc4ccc(Br)cc4)CC3)cc12 [Example I-852] | 100 to 1000 nM
